Tests used:
Experiment in all cases: EUCAST 96-well plate fungal growth inhibition (MIC)
Type in all cases: cell-based
[1] = system: Aspergillus niger (ATCC #6275); parameters: key to growth of Aspergillus niger in 96-well plates: (+) in each block indicates growth; (−) indicates no growth, i.e., the inhibitor was effective; details: for MIC: Aspergillus niger ATCC 6275, 3 days at 35° C.
Method: (§1) (A) 0.17 g of 60% DPAB aqueous solution (ProTek® PBT or Polymeric Betaine EP or Polymeric Betaine Technical Grade Active Ingredient Wood Preservative, Troy Chemical Corporation, Newark, N.J.) was diluted in 9.83 g ethanol by stirring to form a concentrate containing 1% DPAB.
(§2) (B) 0.25 g of 40% IPBC solvent solution (Polyphase® AF-1, Troy Chemical Corporation, Newark, N.J.) was diluted in 9.75 g ethanol by stirring to form a concentrate containing 1% IPBC.
(§3) (C) 21.04 g of 60% DPAB aqueous solution (ProTek® PBT or Polymeric Betaine EP or Polymeric Betaine Technical Grade Active Ingredient Wood Preservative, Troy Chemical Corporation, Newark, N.J.), 6.25 g of 40% IPBC solvent solution (Polyphase AF-1, Troy Chemical Corporation, Newark, N.J.) and 22.74 g of ethanol were mixed and stirred. The resulting concentrate contained 25% polymeric betaine and 5% IPBC. The weight ratio of polymeric betaine to IPBC was 5:1. 0.33 g of this IPBC/polymeric betaine concentrate was diluted in 9.67 g of ethanol to form a use-dilution containing about 0.83% DPAB and 0.17% IPBC.
(§4) Solutions prepared as described above were tested in 96-well plates for their ability to inhibit fungal growth. The solutions were tested according to the EUCAST methodology as described in Rodriguez-Tudela et al. 2006 “Antifungal susceptibility testing in Aspergillus spp. according to EUCAST methodology,” the contents of which are incorporated by reference herein. The solutions were checked for inhibition against fungal organisms Aspergillus niger (ATCC #6275), Aureobasidium pullulans (ATCC #9348), Penicillium funiculosum (ATCC #11797) and Trichoderma pseudokoningii (ATCC #26801). This method is described below:
(§5) (1) Prepared preservative test wells by adding 2 microliters of each 1% preservative solution formulation to 198 microliters of 2xRPMI-MOPS-2% Glucose in each column “1” in duplicate.
(§6) (2) Added 100 microliters of 2xRPMI-MOPS-2% Glucose to the remaining columns.
(§7) (3) Performed 2-fold dilutions down the columns to column “12”.
(§8) (4) Prepared suspension of microorganisms from a 3-5 day old PDA slants by flooding slant with 1 mL deionized water and 0.1% Tween-20.
(§9) (5) Suspension strength was determined via hemocytometer then adjusted to 1×10^6 spores/mL with sterile deionized water.
(§10) (6) Added 100 microliters of the microorganism suspension to all wells except for sterility (−) controls containing test media. The water used to prepare the fungal suspensions was added to sterility (−) control wells.
(§11) (7) The inoculated 96-well plates were incubated for 3 days at 35° C.
(§12) (8) After incubation, fungal growth was evaluated by visual growth in test wells. Minimum inhibitory concentration (MIC) is recorded in ppm and defined as the lowest concentration of fungicide that produces no visual changes in turbidity in the test wells. (+) in each block indicates growth and (−) indicates no growth, i.e., the inhibitor was effective.
(§13) (9) The experiment is only considered valid if growth is observed in the positive (+) control wells and no growth is observed in the negative control wells.
(§14) In order to show more directly the possible synergy in the invention, the results are presented by applying the Synergy Index (S.I.). Minimal inhibitory concentration of the composition of this invention (mixture of DPAB and IPBC) are analyzed using the following equation:
(§15) MCA=Concentration of compound A in parts per million, acting alone, which prevents fungal growth at the reference point
(§16) MCA′=Concentration of compound A in parts per million, in the mixture, which prevents fungal growth at the reference point
(§17) MCB=Concentration of compound B in parts per million, acting alone, which prevents fungal growth at the reference point
(§18) MCB′=Concentration of compound B in parts per million, in the mixture, which prevents fungal growth at the reference point
(§19) When SI is greater than 2, antagonism is indicated. […] When SI is between 0.5 and 2, the action of biocides is additive.

[2] = system: Penicillium funiculosum (ATCC #11797); parameters: key to growth of Penicillium funiculosum in 96-well plates: (+) in each block indicates growth; (−) indicates no growth, i.e., the inhibitor was effective; details: for MIC: Penicillium funiculosum ATCC 11797, 3 days at 35° C.
Method: as §1, §2, §3, §4, §5, §6, §7, §8, §9, §10, §11
(8) After incubation, fungal growth was evaluated by visual growth in test wells. Minimum inhibitory concentration (MIC) is recorded in ppm and defined as the lowest concentration of fungicide that produces no visual changes in turbidity in the test wells.
Minimal inhibitory concentration of the composition of this invention (mixture of DPAB and IPBC) are analyzed using the following equation:
as §15, §16, §17, §18, §19

[3] = system: Trichoderma pseudokoningii (ATCC #26801); parameters: key to growth of Trichoderma pseudokoningii in 96-well plates: (+) in each block indicates growth; (−) indicates no growth, i.e., the inhibitor was effective; details: for MIC: Trichoderma pseudokoningii ATCC 26801, 3 days at 35° C.
Method: as §1, §2, §3, §4, §5, §6, §7, §8, §9, §10, §11, §12, §13, §14, §15, §16, §17, §18, §19

Molecule: CCCCNC(=O)OCC#CI [IPBC, 3-iodo-2-propynyl butyl carbamate]
- MIC [1]: 0.78 ppm
- growth of Aspergillus niger in 96-well plates ([1]; well 1, 50.0 ppm active): −
- growth of Aspergillus niger in 96-well plates ([1]; well 2, 25.0 ppm active): −
- growth of Aspergillus niger in 96-well plates ([1]; well 3, 12.5 ppm active): −
- growth of Aspergillus niger in 96-well plates ([1]; well 4, 6.25 ppm active): −
- growth of Aspergillus niger in 96-well plates ([1]; well 5, 3.13 ppm active): −
- growth of Aspergillus niger in 96-well plates ([1]; well 6, 1.56 ppm active): −
- growth of Aspergillus niger in 96-well plates ([1]; well 7, 0.78 ppm active): −
- growth of Aspergillus niger in 96-well plates ([1]; well 8, 0.39 ppm active): +
- growth of Aspergillus niger in 96-well plates ([1]; well 9, 0.20 ppm active): +
- growth of Aspergillus niger in 96-well plates ([1]; well 10, 0.10 ppm active): +
- growth of Aspergillus niger in 96-well plates ([1]; well 11, 0.05 ppm active): +
- growth of Aspergillus niger in 96-well plates ([1]; well 12, 0.02 ppm active): +
- MIC [2]: 0.78 ppm
- growth of Penicillium funiculosum in 96-well plates ([2]; well 1, concentration 50.00): −
- growth of Penicillium funiculosum in 96-well plates ([2]; well 2, concentration 25.00): −
- growth of Penicillium funiculosum in 96-well plates ([2]; well 3, concentration 12.50): −
- growth of Penicillium funiculosum in 96-well plates ([2]; well 4, concentration 6.25): −
- growth of Penicillium funiculosum in 96-well plates ([2]; well 5, concentration 3.13): −
- growth of Penicillium funiculosum in 96-well plates ([2]; well 6, concentration 1.56): −
- growth of Penicillium funiculosum in 96-well plates ([2]; well 7, concentration 0.78): −
- growth of Penicillium funiculosum in 96-well plates ([2]; well 8, concentration 0.39): +
- growth of Penicillium funiculosum in 96-well plates ([2]; well 9, concentration 0.20): +
- growth of Penicillium funiculosum in 96-well plates ([2]; well 11, concentration 0.05): +
- growth of Penicillium funiculosum in 96-well plates ([2]; well 12, concentration 0.02): +
- MIC [3]: 6.25 ppm
- growth of Trichoderma pseudokoningii in 96-well plates ([3]; well 1, 50.00 ppm active): −
- growth of Trichoderma pseudokoningii in 96-well plates ([3]; well 2, 25.00 ppm active): −
- growth of Trichoderma pseudokoningii in 96-well plates ([3]; well 3, 12.50 ppm active): −
- growth of Trichoderma pseudokoningii in 96-well plates ([3]; well 4, 6.25 ppm active): −
- growth of Trichoderma pseudokoningii in 96-well plates ([3]; well 5, 3.13 ppm active): +
- growth of Trichoderma pseudokoningii in 96-well plates ([3]; well 6, 1.56 ppm active): +
- growth of Trichoderma pseudokoningii in 96-well plates ([3]; well 7, 0.78 ppm active): +
- growth of Trichoderma pseudokoningii in 96-well plates ([3]; well 8, 0.39 ppm active): +
- growth of Trichoderma pseudokoningii in 96-well plates ([3]; well 9, 0.20 ppm active): +
- growth of Trichoderma pseudokoningii in 96-well plates ([3]; well 10, 0.10 ppm active): +
- growth of Trichoderma pseudokoningii in 96-well plates ([3]; well 11, 0.05 ppm active): +
- growth of Trichoderma pseudokoningii in 96-well plates ([3]; well 12, 0.02 ppm active): +

Molecule: didecyl bis(hydroxyethyl) ammonium borate [DPAB]
- MIC [1]: 12.50 ppm
- growth of Aspergillus niger in 96-well plates ([1]; well 1, 50.0 ppm active): −
- growth of Aspergillus niger in 96-well plates ([1]; well 2, 25.0 ppm active): −
- growth of Aspergillus niger in 96-well plates ([1]; well 3, 12.5 ppm active): −
- growth of Aspergillus niger in 96-well plates ([1]; well 4, 6.25 ppm active): +
- growth of Aspergillus niger in 96-well plates ([1]; well 5, 3.13 ppm active): +
- growth of Aspergillus niger in 96-well plates ([1]; well 6, 1.56 ppm active): +
- growth of Aspergillus niger in 96-well plates ([1]; well 7, 0.78 ppm active): +
- growth of Aspergillus niger in 96-well plates ([1]; well 8, 0.39 ppm active): +
- growth of Aspergillus niger in 96-well plates ([1]; well 9, 0.20 ppm active): +
- growth of Aspergillus niger in 96-well plates ([1]; well 10, 0.10 ppm active): +
- growth of Aspergillus niger in 96-well plates ([1]; well 11, 0.05 ppm active): +
- growth of Aspergillus niger in 96-well plates ([1]; well 12, 0.02 ppm active): +
- MIC [2]: 6.25 ppm
- growth of Penicillium funiculosum in 96-well plates ([2]; well 1, concentration 50.00): −
- growth of Penicillium funiculosum in 96-well plates ([2]; well 2, concentration 25.00): −
- growth of Penicillium funiculosum in 96-well plates ([2]; well 3, concentration 12.50): −
- growth of Penicillium funiculosum in 96-well plates ([2]; well 4, concentration 6.25): −
- growth of Penicillium funiculosum in 96-well plates ([2]; well 5, concentration 3.13): +
- growth of Penicillium funiculosum in 96-well plates ([2]; well 6, concentration 1.56): +
- growth of Penicillium funiculosum in 96-well plates ([2]; well 7, concentration 0.78): +
- growth of Penicillium funiculosum in 96-well plates ([2]; well 8, concentration 0.39): +
- growth of Penicillium funiculosum in 96-well plates ([2]; well 9, concentration 0.20): +
- growth of Penicillium funiculosum in 96-well plates ([2]; well 10, concentration 0.10): +
- growth of Penicillium funiculosum in 96-well plates ([2]; well 11, concentration 0.05): +
- growth of Penicillium funiculosum in 96-well plates ([2]; well 12, concentration 0.02): +
- MIC [3]: 25.00 ppm
- growth of Trichoderma pseudokoningii in 96-well plates ([3]; well 1, 50.00 ppm active): −
- growth of Trichoderma pseudokoningii in 96-well plates ([3]; well 2, 25.00 ppm active): −
- growth of Trichoderma pseudokoningii in 96-well plates ([3]; well 3, 12.50 ppm active): +
- growth of Trichoderma pseudokoningii in 96-well plates ([3]; well 4, 6.25 ppm active): +
- growth of Trichoderma pseudokoningii in 96-well plates ([3]; well 5, 3.13 ppm active): +
- growth of Trichoderma pseudokoningii in 96-well plates ([3]; well 6, 1.56 ppm active): +
- growth of Trichoderma pseudokoningii in 96-well plates ([3]; well 7, 0.78 ppm active): +
- growth of Trichoderma pseudokoningii in 96-well plates ([3]; well 8, 0.39 ppm active): +
- growth of Trichoderma pseudokoningii in 96-well plates ([3]; well 9, 0.20 ppm active): +
- growth of Trichoderma pseudokoningii in 96-well plates ([3]; well 10, 0.10 ppm active): +
- growth of Trichoderma pseudokoningii in 96-well plates ([3]; well 11, 0.05 ppm active): +
- growth of Trichoderma pseudokoningii in 96-well plates ([3]; well 12, 0.02 ppm active): +
